Columns and labels:
[1] = test system: foreign-body (sponge) granuloma in rats; assay: Experimental granuloma induced by foreign body, histological study; format: in vivo, Wistar rats; conditions: both doses (50 and 100 mg/kg) oral, 8 days; Table XI
Method: This test consists in studying the subacute cellular phase which is developed in the 8 days which follow the implantation of a foreign body, a sponge of non-resorbable plastic, in the dorsal subcutaneous connective tissue in rats.
The granulomas formed are removed 8 days after the implantation; a histological study is carried out after fixing the tissue and staining sections with hematein/ eosin. The observation is more especially concerned with the cell population of the primary phase of the formation of the granulation tissue: the reticulohistocytic cells, lymphocytes and more especially the macrophages.
The animals used are Wistar rats weighing 120-140 g and of the same origin, maintained under the same conditions of housing throughout the treatment (8 days).
The compounds of the invention are administered orally, in a gum suspension, in the morning in a fasted state, using an oesophageal tube.
After 8 days of treatment, the rats are sacrificed by decapitation and the granulomas removed and prepared for the purpose of histological examination.
The experiment conditions are as follows:
The animals are distributed in batches of 10;
Each test product is administered at 2 doses, of 50 and 100 mg, respectively, to 2 batches of 10 animals;
Ketoprofen is used by way of reference product at the same 2 doses and under the same conditions; and
A batch of 10 control animals receives no treatment.
In this experiment, on the one hand a histological study of the granulomas is performed by sampling on day 8 (results recorded in Table XIa), and on the other hand a study of the weight of the granulomas was performed 10 days after the implantation (results recorded in Table XIb).

[2] = Oral LD50 in mice; conditions: mouse, in vivo, female Swiss CF mice, 20 g, 14 days observation, read-out: approximate oral LD50
Method: (§1) The compounds were suspended in a 3% strength solution of gum arabic so as to supply, in a volume of 2 ml for the rats, the equivalent of 50, 100, 200, 400 and 800 mg/kg, and, in a volume of 1 ml for the mice, 100, 200, 400, 800 and 1,600 mg/kg and, for 1573 and 1579, 3,200 mg/kg.
(§2) Gavage was performed by means of a metal tube, on batches of 5 animals for each series.
(§3) The animals were observed daily for 14 days.

[3] = Oral LD50 in rats; conditions: rat, in vivo, male Wistar rats, 200-400 g, 14 days observation, read-out: approximate oral LD50
Method: as §1, §2, §3

[4] = test system: rat hind foot kaolin-induced oedema; assay: Kaolin-induced arthritis test, first experiment (decrease in inflammation, foot volume); format: in vivo; conditions: 1 h before kaolin, Table IX, read-out: percentage decrease in the inflammation; for change in vivo at 25 mg/kg: 25 mg/kg oral; for change in vivo at 50 mg/kg: 50 mg/kg oral; for change in vivo at 100 mg/kg: 100 mg/kg oral
Method: The […] of 0.05 ml of a sterile 10% strength suspension of kaolin into the metatarsal flexor sheath of the hind foot of a rat initially induces an oedematous reaction. An inflammatory arthritis then forms.
The early oedematous reaction appears from the first hour, and reaches its maximum between the fourth hour and the sixth hour. This is the manifestation of interest. The assessment of the volume of the foot enables the action of substances on the oedematous reaction to be studied. The measurements are carried out using a Giono and Chevilard plethysmometer.
The test products are administered orally (stomach tube) one hour before the injection of the kaolin.
The results are expressed as a percentage decrease in the inflammation in the treated animals compared with a control series of animals.
The batches are of 10 animals per dose and 10 control animals.
The figures shown represent the mean of 10 animals.

[5] = test system: pain threshold of brewer's yeast inflamed rat hind foot; assay: Randall and Sellitto's test (analgesic activity); format: in vivo; conditions: first experiment, Table XII, read-out: percentage increase in the mean pain threshold; for change in vivo at 25 mg/kg: 25 mg/kg oral; for change in vivo at 50 mg/kg: 50 mg/kg oral; for change in vivo at 100 mg/kg: 100 mg/kg oral
Summary of the method: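 Rats had 0.1 ml 20% brewer's yeast suspension injected under the hind-foot plantar aponeurosis; compounds dosed orally by stomach tube 1 h before yeast. Pain threshold was the pressure eliciting foot withdrawal, read at the 4–6 h plateau; result is % increase in mean threshold versus untreated controls, 10 rats per group.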

[6] = test system: rat hind foot carragheenin-induced oedema; assay: Carragheenin-induced oedema test; format: in vivo; conditions: 3 h, first experiment, Table X, read-out: percentage inhibition of the inflammation; for change in vivo at 25 mg/kg: 25 mg/kg oral; for change in vivo at 50 mg/kg: 50 mg/kg oral; for change in vivo at 100 mg/kg: 100 mg/kg oral
[7] = test system: prostacyclin synthetase; assay: PGI2 production in human glomeruli (renal preparation model); format: cell-based; conditions: arachidonic acid 5 ug/ml
Method: (§4) Human glomeruli synthesize both thromboxanes, via thromboxane synthetase, and prostaglandins, via prostacyclin synthetase. The experiment consists in stimulating glomerular cells with arachidonic acid (5 ug/ml) and in assaying radioimmunologically the amount of thromboxane B2 (TXB2) and prostacyclin (PGI2) produced in the presence of increasing concentrations of test products (10^-6 M to 5×10^-5 M).
(§5) As for the previous model, the results are expressed as IC50 in comparison with a control suspension.

[8] = test system: thromboxane synthetase; assay: TXB2 production in human platelet suspension (thromboxane synthetase); format: cell-based; conditions: human platelets, arachidonic acid 5 μg/ml, 37° C., read-out: IC50, inhibition of the production of TXB2
Method: The platelets are incubated with arachidonic acid (5 μg/ml) in the presence of increasing doses of test products (10^-6l M to 5×10^-5 M). Platelets stimulated by arachidonic acid (AA) manufacture a large amount of thromboxane A2 (TXA2), which can be measured radioimmunologically in the form of a stable metabolite TXB2.
The assay of the amount of TXB2 in the medium is performed after a 1- to 15- minute incubation at 37° C., the measurements being made in comparison with a control suspension which has not been incubated with the test products.
Results: These are expressed as IC50, that is to say as the concentration of the test product which permits 50% inhibition of the production of TXB2.

[9] = test system: 5-lipoxygenase; assay: Production of LTB4 and 5-HETE by human leukocytes incubated with arachidonic acid; format: cell-based; conditions: ionophore A 23187 5 μM, arachidonic acid 10 μg/ml
Method: Human polymorphonuclear leukocytes suspended with arachidonic acid and stimulated by calcium ionophore produce leukotrienes B4 (LTB4).
The test consists in incubating fresh human leukocytes with arachidonic acid at a dose of 10 μg/ml to which a tracer dose of tritium-labelled arachidonic acid has been added. The leukocytes are stimulated with calcium ionophore A 23187 (Calbiochem, 5 μM) and the amount of 5-hydroxyeicosatetraenoic acid (5-HETE) and LTB4 produced is then assayed by HPLC.
5-HETE is the metabolite produced from arachidonic acid by 5-lipoxygenase, and from which LTB4 is produced by the action of an isomerase.
The results are expressed as an integration of the surface of the peak obtained in HPLC by comparison with that obtained with control leukocytes which have not been incubated with the test products.
The results in brackets are expressed as a percentage inhibition of the production of 5-HETE and LTB4.

[10] = test system: biosynthesis of leukotrienes C4 (LTC4), human polymorphonuclear leukocytes; assay: LTC4 production in human polymorphonuclear leukocytes; format: cell-based; conditions: Leukocyte, 0.25 h, ionophore A 23187 5 μM, 15 min, 37° C., read-out: IC50, inhibition of the production of LTC4
Method: Human polymorphonuclear Leukocytes are stimulated by calcium ionophore A 23187 (Calbiochem, 5 μM), in the presence or absence of the test products.
After 15 minutes' incubation at 37° C., assay of the leukotrienes C4 (LTC4) is performed radioimmunologically.
The results are expressed as IC50, the concentration producing 50% inhibition of the production of LTC4, by comparison with a control suspension which has not been incubated in the presence of the test products.

[11] = test system: thromboxane synthetase; assay: TXB2 production in human glomeruli (renal preparation model); format: cell-based; conditions: arachidonic acid 5 ug/ml
Method: as §4, §5

In the case of `O=C(c1ccccc1)c1ccccc1S(=O)(=O)NCCN1CCOCC1` [Compound 1341], the “histological study of the granuloma” value [1] is reported as “Inflammatory reaction distinctly attenuated” and the LD50 at 336 h [2] is reported as 250 mg/kg.

`O=C(c1ccccc1)c1cc([N+](=O)[O-])ccc1S(=O)(=O)NCCCN1CCOCC1` [Compound 1361] showed an LD50 at 336 h [3] greater than 800 mg/kg, a change in vivo at 25 mg/kg [4] of -25% and a change in vivo at 50 mg/kg [4] of -30%. The change in vivo at 100 mg/kg [4] was -48%, the “histological study of the granuloma” value [1] was “anti-inflammatory activity is exhibited” and the change in vivo at 25 mg/kg [5] was 20%. For the same molecule, the change in vivo at 50 mg/kg [5] was 25%, the change in vivo at 100 mg/kg [5] was 45% and the change in vivo at 25 mg/kg [6] was -15%. It also gave a change in vivo at 50 mg/kg [6] of -25%, a change in vivo at 100 mg/kg [6] of -45% and an LD50 at 336 h [2] greater than 1600 mg/kg.

For `O=C(O)CCCNS(=O)(=O)c1ccc(Cl)cc1C(=O)c1ccccc1Cl` [Compound 1573], the change in vivo at 25 mg/kg [4] was -15%, the change in vivo at 50 mg/kg [4] was -30% and the change in vivo at 100 mg/kg [4] was -52%. For the same molecule, the “histological study of the granuloma” value [1] was “the activity is very distinct”, the change in vivo at 25 mg/kg [5] was 20% and the change in vivo at 50 mg/kg [5] was 35%. The change in vivo at 100 mg/kg [5] was 60%, the change in vivo at 25 mg/kg [6] was -17% and the change in vivo at 50 mg/kg [6] was -28%. The change in vivo at 100 mg/kg [6] was -50% and the LD50 at 336 h [2] was greater than 3200 mg/kg.

With `O=C(O)CCCCCCCCCCCNS(=O)(=O)c1ccc(Cl)c(C(=O)c2cccs2)c1` [Compound 1813] the IC50 [7] was greater than 50 µM, the IC50 [8] was 11 µM and the “5-HETE, integration of the surface of the HPLC peak” value [9] was 181. The IC50 [10] was 1 µM and the IC50 [11] was 2 µM.

Source: patent US4980349A, “Sulphonamides derived from diarylmethanes, the processes for preparing them and pharmaceutical compositions containing them” (SANOFI, priority 1986, dated 1990)
